{"source": "the supplement of paper PMC10307832", "experiment_in_all_cases": "relative viability (nuclei count vs DMSO), 5 days (fraction); higher = more cells survive", "key": {"BEN": {"test_system": "BEN", "in_short": "(§1)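 Five library-drug doses in √10 steps were combined with a fixed anchor-drug dose, or a single drug was given alone, by pin tool to lung cancer cell lines in 1536-well plates the day after seeding. Nuclei were stained and counted after 5 days. Relative viability is the nuclei count in treated wells over that in vehicle wells, taken as the median of duplicate plates.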"}, "CAL-12T": {"test_system": "CAL-12T", "in_short": "as §1"}, "COR-L23": {"test_system": "COR-L23", "in_short": "as §1"}, "LU99A": {"test_system": "LU99A", "in_short": "as §1"}, "LXF-289": {"test_system": "LXF-289", "in_short": "as §1"}, "NCI-H1355": {"test_system": "NCI-H1355", "in_short": "as §1"}, "NCI-H1437": {"test_system": "NCI-H1437", "in_short": "as §1"}, "NCI-H1563": {"test_system": "NCI-H1563", "in_short": "as §1"}, "NCI-H1650": {"test_system": "NCI-H1650", "in_short": "as §1"}, "NCI-H1651": {"test_system": "NCI-H1651", "in_short": "as §1"}, "NCI-H1666": {"test_system": "NCI-H1666", "in_short": "as §1"}, "NCI-H1755": {"test_system": "NCI-H1755", "in_short": "as §1"}, "NCI-H1993": {"test_system": "NCI-H1993", "in_short": "as §1"}, "NCI-H2085": {"test_system": "NCI-H2085", "in_short": "as §1"}, "NCI-H2087": {"test_system": "NCI-H2087", "in_short": "as §1"}, "NCI-H2170": {"test_system": "NCI-H2170", "in_short": "as §1"}, "NCI-H460": {"test_system": "NCI-H460", "in_short": "as §1"}, "NCI-H520": {"test_system": "NCI-H520", "in_short": "as §1"}, "PC-14": {"test_system": "PC-14", "in_short": "as §1"}, "SK-MES-1": {"test_system": "SK-MES-1", "in_short": "as §1"}}, "data": [{"smiles": "CCNC(=O)c1noc(-c2cc(C(C)C)c(O)cc2O)c1-c1ccc(CN2CCOCC2)cc1", "note": "[Luminespib] + COc1cc2c(Oc3ccc(NC(=O)C4(C(=O)Nc5ccc(F)cc5)CC4)cc3F)ccnc2cc1OCCCN1CCOCC1 [Foretinib] (partner 0.25 µM)", "values": [{"measurement": "relative viability", "setting": "BEN; first compound 0.002 µM", "result": 0.63}, {"measurement": "relative viability", "setting": "BEN; first compound 0.006325 µM", "result": 0.71}, {"measurement": "relative viability", "setting": "BEN; first compound 0.02 µM", "result": 0.362}, {"measurement": "relative viability", "setting": "BEN; first compound 0.06325 µM", "result": 0.531}, {"measurement": "relative viability", "setting": "BEN; first compound 0.2 µM", "result": 0.222}, {"measurement": "relative viability", "setting": "CAL-12T; first compound 0.002 µM", "result": 1.25}, {"measurement": "relative viability", "setting": "CAL-12T; first compound 0.006325 µM", "result": 1.15}, {"measurement": "relative viability", "setting": "CAL-12T; first compound 0.02 µM", "result": 0.824}, {"measurement": "relative viability", "setting": "CAL-12T; first compound 0.06325 µM", "result": 0.127}, {"measurement": "relative viability", "setting": "CAL-12T; first compound 0.2 µM", "result": 0.128}, {"measurement": "relative viability", "setting": "COR-L23; first compound 0.002 µM", "result": 1.06}, {"measurement": "relative viability", "setting": "COR-L23; first compound 0.006325 µM", "result": 0.894}, {"measurement": "relative viability", "setting": "COR-L23; first compound 0.02 µM", "result": 1.12}, {"measurement": "relative viability", "setting": "COR-L23; first compound 0.06325 µM", "result": 0.124}, {"measurement": "relative viability", "setting": "COR-L23; first compound 0.2 µM", "result": 0.105}, {"measurement": "relative viability", "setting": "LU99A; first compound 0.002 µM", "result": 0.821}, {"measurement": "relative viability", "setting": "LU99A; first compound 0.006325 µM", "result": 0.758}, {"measurement": "relative viability", "setting": "LU99A; first compound 0.02 µM", "result": 0.527}, {"measurement": "relative viability", "setting": "LU99A; first compound 0.06325 µM", "result": 0.186}, {"measurement": "relative viability", "setting": "LU99A; first compound 0.2 µM", "result": 0.175}, {"measurement": "relative viability", "setting": "LXF-289; first compound 0.002 µM", "result": 0.993}, {"measurement": "relative viability", "setting": "LXF-289; first compound 0.006325 µM", "result": 0.979}, {"measurement": "relative viability", "setting": "LXF-289; first compound 0.02 µM", "result": 1.2}, {"measurement": "relative viability", "setting": "LXF-289; first compound 0.06325 µM", "result": 0.547}, {"measurement": "relative viability", "setting": "LXF-289; first compound 0.2 µM", "result": 0.323}, {"measurement": "relative viability", "setting": "NCI-H1355; first compound 0.002 µM", "result": 1.02}, {"measurement": "relative viability", "setting": "NCI-H1355; first compound 0.006325 µM", "result": 0.912}, {"measurement": "relative viability", "setting": "NCI-H1355; first compound 0.02 µM", "result": 0.671}, {"measurement": "relative viability", "setting": "NCI-H1355; first compound 0.06325 µM", "result": 0.927}, {"measurement": "relative viability", "setting": "NCI-H1355; first compound 0.2 µM", "result": 0.622}, {"measurement": "relative viability", "setting": "NCI-H1437; first compound 0.002 µM", "result": 1.3}, {"measurement": "relative viability", "setting": "NCI-H1437; first compound 0.006325 µM", "result": 1.2}, {"measurement": "relative viability", "setting": "NCI-H1437; first compound 0.02 µM", "result": 1.33}, {"measurement": "relative viability", "setting": "NCI-H1437; first compound 0.06325 µM", "result": 1.24}, {"measurement": "relative viability", "setting": "NCI-H1437; first compound 0.2 µM", "result": 0.526}, {"measurement": "relative viability", "setting": "NCI-H1563; first compound 0.002 µM", "result": 1.01}, {"measurement": "relative viability", "setting": "NCI-H1563; first compound 0.006325 µM", "result": 0.831}, {"measurement": "relative viability", "setting": "NCI-H1563; first compound 0.02 µM", "result": 0.875}, {"measurement": "relative viability", "setting": "NCI-H1563; first compound 0.06325 µM", "result": 0.452}, {"measurement": "relative viability", "setting": "NCI-H1563; first compound 0.2 µM", "result": 0.537}, {"measurement": "relative viability", "setting": "NCI-H1650; first compound 0.002 µM", "result": 1.26}, {"measurement": "relative viability", "setting": "NCI-H1650; first compound 0.006325 µM", "result": 1.17}, {"measurement": "relative viability", "setting": "NCI-H1650; first compound 0.02 µM", "result": 1.23}, {"measurement": "relative viability", "setting": "NCI-H1650; first compound 0.06325 µM", "result": 0.158}, {"measurement": "relative viability", "setting": "NCI-H1650; first compound 0.2 µM", "result": 0.164}, {"measurement": "relative viability", "setting": "NCI-H1651; first compound 0.002 µM", "result": 0.837}, {"measurement": "relative viability", "setting": "NCI-H1651; first compound 0.006325 µM", "result": 0.718}, {"measurement": "relative viability", "setting": "NCI-H1651; first compound 0.02 µM", "result": 0.826}, {"measurement": "relative viability", "setting": "NCI-H1651; first compound 0.06325 µM", "result": 0.309}, {"measurement": "relative viability", "setting": "NCI-H1651; first compound 0.2 µM", "result": 0.208}, {"measurement": "relative viability", "setting": "NCI-H1666; first compound 0.002 µM", "result": 0.988}, {"measurement": "relative viability", "setting": "NCI-H1666; first compound 0.006325 µM", "result": 0.904}, {"measurement": "relative viability", "setting": "NCI-H1666; first compound 0.02 µM", "result": 0.986}, {"measurement": "relative viability", "setting": "NCI-H1666; first compound 0.06325 µM", "result": 0.94}, {"measurement": "relative viability", "setting": "NCI-H1666; first compound 0.2 µM", "result": 0.967}, {"measurement": "relative viability", "setting": "NCI-H1755; first compound 0.002 µM", "result": 0.874}, {"measurement": "relative viability", "setting": "NCI-H1755; first compound 0.006325 µM", "result": 0.946}, {"measurement": "relative viability", "setting": "NCI-H1755; first compound 0.02 µM", "result": 0.948}, {"measurement": "relative viability", "setting": "NCI-H1755; first compound 0.06325 µM", "result": 0.555}, {"measurement": "relative viability", "setting": "NCI-H1755; first compound 0.2 µM", "result": 0.305}, {"measurement": "relative viability", "setting": "NCI-H1993; first compound 0.002 µM", "result": 0.772}, {"measurement": "relative viability", "setting": "NCI-H1993; first compound 0.006325 µM", "result": 0.779}, {"measurement": "relative viability", "setting": "NCI-H1993; first compound 0.02 µM", "result": 0.632}, {"measurement": "relative viability", "setting": "NCI-H1993; first compound 0.06325 µM", "result": 0.549}, {"measurement": "relative viability", "setting": "NCI-H1993; first compound 0.2 µM", "result": 0.482}, {"measurement": "relative viability", "setting": "NCI-H2085; first compound 0.002 µM", "result": 1.19}, {"measurement": "relative viability", "setting": "NCI-H2085; first compound 0.006325 µM", "result": 0.896}, {"measurement": "relative viability", "setting": "NCI-H2085; first compound 0.02 µM", "result": 1.07}, {"measurement": "relative viability", "setting": "NCI-H2085; first compound 0.06325 µM", "result": 0.603}, {"measurement": "relative viability", "setting": "NCI-H2085; first compound 0.2 µM", "result": 0.457}, {"measurement": "relative viability", "setting": "NCI-H2087; first compound 0.002 µM", "result": 1.11}, {"measurement": "relative viability", "setting": "NCI-H2087; first compound 0.006325 µM", "result": 1.1}, {"measurement": "relative viability", "setting": "NCI-H2087; first compound 0.02 µM", "result": 1.37}, {"measurement": "relative viability", "setting": "NCI-H2087; first compound 0.06325 µM", "result": 0.118}, {"measurement": "relative viability", "setting": "NCI-H2087; first compound 0.2 µM", "result": 0.113}, {"measurement": "relative viability", "setting": "NCI-H2170; first compound 0.002 µM", "result": 0.986}, {"measurement": "relative viability", "setting": "NCI-H2170; first compound 0.006325 µM", "result": 0.973}, {"measurement": "relative viability", "setting": "NCI-H2170; first compound 0.02 µM", "result": 0.806}, {"measurement": "relative viability", "setting": "NCI-H2170; first compound 0.06325 µM", "result": 0.72}, {"measurement": "relative viability", "setting": "NCI-H2170; first compound 0.2 µM", "result": 0.181}, {"measurement": "relative viability", "setting": "NCI-H460; first compound 0.002 µM", "result": 1.01}, {"measurement": "relative viability", "setting": "NCI-H460; first compound 0.006325 µM", "result": 1.07}, {"measurement": "relative viability", "setting": "NCI-H460; first compound 0.02 µM", "result": 0.957}, {"measurement": "relative viability", "setting": "NCI-H460; first compound 0.06325 µM", "result": 0.0285}, {"measurement": "relative viability", "setting": "NCI-H460; first compound 0.2 µM", "result": 0.0276}, {"measurement": "relative viability", "setting": "NCI-H520; first compound 0.002 µM", "result": 1.09}, {"measurement": "relative viability", "setting": "NCI-H520; first compound 0.006325 µM", "result": 0.659}, {"measurement": "relative viability", "setting": "NCI-H520; first compound 0.02 µM", "result": 0.651}, {"measurement": "relative viability", "setting": "NCI-H520; first compound 0.06325 µM", "result": 0.147}, {"measurement": "relative viability", "setting": "NCI-H520; first compound 0.2 µM", "result": 0.162}, {"measurement": "relative viability", "setting": "PC-14; first compound 0.002 µM", "result": 0.967}, {"measurement": "relative viability", "setting": "PC-14; first compound 0.006325 µM", "result": 0.882}, {"measurement": "relative viability", "setting": "PC-14; first compound 0.02 µM", "result": 0.945}, {"measurement": "relative viability", "setting": "PC-14; first compound 0.06325 µM", "result": 0.567}, {"measurement": "relative viability", "setting": "PC-14; first compound 0.2 µM", "result": 0.125}, {"measurement": "relative viability", "setting": "SK-MES-1; first compound 0.002 µM", "result": 0.829}, {"measurement": "relative viability", "setting": "SK-MES-1; first compound 0.006325 µM", "result": 0.804}, {"measurement": "relative viability", "setting": "SK-MES-1; first compound 0.02 µM", "result": 0.777}, {"measurement": "relative viability", "setting": "SK-MES-1; first compound 0.06325 µM", "result": 0.138}, {"measurement": "relative viability", "setting": "SK-MES-1; first compound 0.2 µM", "result": 0.156}]}]}
